From patent publication US9462793B2, “Mouse carrying a knock-out mutation of the Qpct-gene” (PROBIODRUG AG, priority 2008, dated 2016)

Experiments:
Qpct [1] = target: T1, Qpct (Homo sapiens, UniProt Q16769); assay: Inhibition of Qpct by chelators (metal dependence); type: biochemical; details: human Qpct and other animal Qpcts
mammalian Qpct = details: cited from earlier work
Qpct [2] = target: T1, Qpct; assay: pH-dependence of Qpct catalyzed conversion of Glu-βNA; type: biochemical
Excerpt: (§1) However, in the pH-range of about 5.2-6.5, between their respective pKa-values, the two functional groups are present both in non-ionized forms, in concentrations of about 1-10% (—NH2) or 10-1% (—COOH) of total N-terminal Glu-containing peptide. As a result, over a mildly acidic pH-range species of N-terminal Glu-peptides are present which carry both groups uncharged, and, therefore, it is possible that Qpct could stabilize the intermediate of intramolecular cyclization into the pGlu-peptide, i.e. if the γ-carboxylic group is protonated, the carbonyl carbon is electrophilic enough to allow nucleophilic attack by the unprotonated α-amino group. At this pH the hydroxyl ion functions as a leaving group. These assumptions are corroborated by the pH-dependence data obtained for the Qpct catalyzed conversion of Glu-βNA. In contrast to glutamine conversion of Gln-βNA by Qpct, the pH-optimum of catalysis shifts to the acidic range around pH 6.0, i.e. the pH-range, in which substrate molecule species are simultaneously abundant carrying a protonated 7-carboxyl and unprotonated α-amino group.

[3] = pKa of α-amino group determined by titration; type: physicochemical
Excerpt: as §1

[4] = cited from earlier work

T1 sequence (Q16769 29-361): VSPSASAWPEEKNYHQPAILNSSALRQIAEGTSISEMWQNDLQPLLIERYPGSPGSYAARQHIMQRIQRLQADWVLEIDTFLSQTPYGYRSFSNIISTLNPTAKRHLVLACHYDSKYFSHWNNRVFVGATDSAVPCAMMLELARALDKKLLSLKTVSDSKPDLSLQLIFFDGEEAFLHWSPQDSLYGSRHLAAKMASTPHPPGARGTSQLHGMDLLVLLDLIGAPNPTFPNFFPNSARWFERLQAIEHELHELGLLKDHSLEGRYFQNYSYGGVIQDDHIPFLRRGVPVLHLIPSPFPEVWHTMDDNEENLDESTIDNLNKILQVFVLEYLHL

Row | Compound | inhibition characteristics of Qpct (Qpct [1]) | Inhibition of a mammalian Qpct (mammalian Qpct) | further results
1 | c1cnc2c(c1)ccc1cccnc12 [1,10-phenanthroline] | inhibition | Inhibition of a mammalian Qpct was only detected | –
2 | Oc1cccc2cccnc12 [8-hydroxy-quinoline] | inhibition | – | –
3 | O=C(O)CN(CCN(CC(=O)O)CC(=O)O)CC(=O)O [EDTA] | – | did not inhibit | –
4 | N[C@@H](CCC(=O)O)C(=O)Nc1ccc2ccccc2c1 [Glu-βNA] | – | – | kinetically determined pKa-value (Qpct [2]): 7.55+/−0.02; pKa of the α-amino group, determined by titration [3]: 7.57±0.05
5 | N[C@@H](CCC(=O)O)C(=O)O [Glutamate] | – | – | pKa-value for the α-amino moiety [4]: ~7.5; pKa-value for the γ-carboxylic moiety [4]: about 4.2
6 | O=C(O)c1cccc(C(=O)O)n1 [dipicolinic acid] | inhibition | – | –
7 | reduced 6-methylpterin | – | Inhibition of a mammalian Qpct was only detected | –
